Source: patent publication US6525001B1, “Substituted pyrimidine and pyridine herbicides” (Mid-American Commercialization Corporation, priority 1997, dated 2003)

How the values were obtained:
Assay type in all cases: in vivo
Set-up in all cases: key: 0 is no effect; 10 is complete control
[1] = test system: smallflower flatsedge (Cyperus difformis); test: Test B flood test
How it was run: (§1)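 Flood test on plants grown to the 2-leaf stage; treated plants kept in greenhouse twelve to sixteen days, then visually rated against controls on a 0 (no effect) to 10 (complete control) scale.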

[2] = test system: duck salad (Heteranthera limosa); test: Test B flood test
How it was run: as §1

[3] = test system: bamyardgrass (Echinochloa crus-galli); test: Test B flood test
How it was run: as §1

rice (Oryza sativa) = test: Test B flood test
How it was run: as §1

soybean (Glycine max) = test: Test B pre-/postemergence
Text: (§2) Seeds of bedstraw (Galium aparine), blackgrass (Alopecurus myosuroides), broadleaf signalgrass (Brachiaria decumbens), cocklebur (Xanthium strumarium), corn (Zea mays), crabgrass (Digitaria sanguinalis), giant foxtail (Setaria faberii), lambsquarters (Chenopodium album), momingglory (Ipomoea hederacea), pigweed (Amaranthus retroflexus), rape (Brassica napus), soybean (Glycine max), sugar beet (Beta vulgaris), velvetleaf (Abutilon theophrasti), wheat (Triticum aestivum), wild oat (Avena fatua) and purple nutsedge (Cyperus rotundus) tubers were planted and treated preemergence with test chemicals formulated in a non-phytotoxic solvent mixture which included a surfactant.
(§3) At the same time, these crop and weed species were also treated with postemergence applications of test chemicals formulated in the same manner. Plants ranged in height from 2 to 18 cm (1- to 4-leaf stage) for postemergence treatments. Plant species in the flood test consisted of rice (Oryza sativa), smallflower flatsedge (Cyperus difformis), duck salad (Heteranthera limosa) and bamyardgrass (Echinochloa crus-galli) grown to the 2-leaf stage for testing. Treated plants and controls were maintained in a greenhouse for twelve to sixteen days, after which all species were compared to controls and visually evaluated. Plant response ratings, summarized in Table B, are based on a scale of 0 to 10 where 0 is no effect and 10 is complete control. A dash (−) response means no test result.

[4] = test system: purple nutsedge (Cyperus rotundus); test: Test B pre-/postemergence
Text: as §2, §3

rape (Brassica napus) = test: Test B pre-/postemergence
Text: as §2, §3

[5] = test system: velvetleaf (Abutilon theophrasti); test: Test B pre-/postemergence
Text: as §2, §3

[6] = test system: crabgrass (Digitaria sanguinalis); test: Test B pre-/postemergence; details: for Crabgrass plant response rating: Preemergence
Text: as §2, §3

corn (Zea mays) = test: Test B pre-/postemergence; details: for Corn plant response rating: Preemergence
Text: as §2, §3

[7] = test system: bedstraw (Galium aparine); test: Test B pre-/postemergence; details: for Bedstraw plant response rating: Preemergence
Text: as §2, §3

[8] = test system: sugar beet (Beta vulgaris); test: Test B pre-/postemergence
Text: as §2, §3

[9] = test system: cocklebur (Xanthium strumarium); test: Test B pre-/postemergence; details: for Cocklebur plant response rating: Preemergence
Text: as §2, §3

wild oat (Avena fatua) = test: Test B pre-/postemergence
Text: as §2, §3

[10] = test system: giant foxtail (Setaria faberii); test: Test B pre-/postemergence
Text: as §2, §3

[11] = test system: blackgrass (Alopecurus myosuroides); test: Test B pre-/postemergence; details: for Blackgrass plant response rating: Preemergence
Text: as §2, §3

[12] = test system: wheat (Triticum aestivum); test: Test B pre-/postemergence
Text: as §2, §3

[13] = test system: pigweed (Amaranthus retroflexus); test: Test B pre-/postemergence
Text: as §2, §3

[14] = test system: momingglory (Ipomoea hederacea); test: Test B pre-/postemergence
Text: as §2, §3

[15] = test system: broadleaf signalgrass (Brachiaria decumbens); test: Test B pre-/postemergence; details: for B. signalgrass plant response rating: Preemergence
Text: as §2, §3

[16] = Rate 62 g/ha, Postemergence (flood test)
[17] = Rate 125 g/ha, Postemergence section (flood test species)
[18] = Rate 250 g/ha, Postemergence (flood test species)
[19] = Rate 125 g/ha, Postemergence, flood test
[20] = Rate 250 g/ha, Postemergence (so in the source)

COc1cnc(-n2ccc(C(F)(F)F)n2)nc1Cc1cccc(C(F)(F)F)c1 [Compound 45]
0: Plant response rating, S. Flatsedge [1, 16] | S. Flatsedge plant response rating [1, 17] | Plant response rating, S. Flatsedge [1, 18] | Plant response rating, Ducksalad [2, 16] | Plant response rating, Ducksalad [2, 19] | Plant response rating, Ducksalad [2, 18] | Plant response rating, Barnyardgrass [3, 16] | Plant response rating, Barnyardgrass [3, 19] | Plant response rating, Barnyardgrass [3, 18] | Plant response rating, Rice (rice (Oryza sativa); [16]) | Rice plant response rating (rice (Oryza sativa); [17]) | Plant response rating, Rice (rice (Oryza sativa); [18]) | Plant response rating, Soybean (soybean (Glycine max); Rate 62 g/ha, Postemergence) | Soybean plant response rating (soybean (Glycine max); Rate 62 g/ha, Preemergence) | Soybean plant response rating (soybean (Glycine max); Rate 125 g/ha, Postemergence) | Plant response rating, Soybean (soybean (Glycine max); Rate 125 g/ha, Preemergence) | Plant response rating, Soybean (soybean (Glycine max); Rate 250 g/ha, Postemergence) | Plant response rating, Soybean (soybean (Glycine max); [20]) | Plant response rating, Nutsedge ([4]; Rate 62 g/ha, Postemergence) | Nutsedge plant response rating ([4]; Rate 62 g/ha, Preemergence) | Nutsedge plant response rating ([4]; Rate 125 g/ha, Postemergence) | Nutsedge plant response rating ([4]; Rate 125 g/ha, Preemergence) | Plant response rating, Nutsedge [4, 20] | Plant response rating, Rape (rape (Brassica napus); Rate 62 g/ha, Postemergence) | Rape plant response rating (rape (Brassica napus); Rate 62 g/ha, Preemergence) | Rape plant response rating (rape (Brassica napus); Rate 125 g/ha, Postemergence) | Rape plant response rating (rape (Brassica napus); Rate 125 g/ha, Preemergence) | Plant response rating, Rape (rape (Brassica napus); Rate 250 g/ha, Postemergence) | Plant response rating, Rape (rape (Brassica napus); [20]) | Plant response rating, Velvetleaf ([5]; Rate 62 g/ha, Postemergence) | Velvetleaf plant response rating ([5]; Rate 62 g/ha, Preemergence) | Velvetleaf plant response rating ([5]; Rate 125 g/ha, Postemergence) | Plant response rating, Velvetleaf ([5]; Rate 125 g/ha, Preemergence) | Plant response rating, Velvetleaf ([5]; Rate 250 g/ha, Postemergence) | Plant response rating, Velvetleaf [5, 20] | Plant response rating, Crabgrass ([6]; Rate 62 g/ha, Postemergence) | Crabgrass plant response rating ([6]; Rate 62 g/ha) | Plant response rating, Crabgrass ([6]; Rate 125 g/ha, Postemergence) | Crabgrass plant response rating ([6]; Rate 125 g/ha) | Plant response rating, Crabgrass ([6]; Rate 250 g/ha, Postemergence) | Plant response rating, Crabgrass [6, 20] | Plant response rating, Corn (corn (Zea mays); Rate 62 g/ha, Postemergence) | Corn plant response rating (corn (Zea mays); Rate 62 g/ha) | Plant response rating, Corn (corn (Zea mays); Rate 125 g/ha, Postemergence) | Corn plant response rating (corn (Zea mays); Rate 125 g/ha) | Plant response rating, Corn (corn (Zea mays); Rate 250 g/ha, Postemergence) | Plant response rating, Corn (corn (Zea mays); [20]) | Plant response rating, Bedstraw ([7]; Rate 62 g/ha, Postemergence) | Bedstraw plant response rating ([7]; Rate 62 g/ha) | Plant response rating, Bedstraw ([7]; Rate 125 g/ha, Postemergence) | Bedstraw plant response rating ([7]; Rate 125 g/ha) | Plant response rating, Bedstraw ([7]; Rate 250 g/ha, Postemergence) | Plant response rating, Bedstraw [7, 20] | Plant response rating, Sugarbeets ([8]; Rate 62 g/ha, Postemergence) | Sugarbeets plant response rating ([8]; Rate 62 g/ha, Preemergence) | Sugarbeets plant response rating ([8]; Rate 125 g/ha, Postemergence) | Plant response rating, Sugarbeets ([8]; Rate 125 g/ha, Preemergence) | Plant response rating, Sugarbeets ([8]; Rate 250 g/ha, Postemergence) | Plant response rating, Sugarbeets [8, 20] | Plant response rating, Cocklebur ([9]; Rate 62 g/ha, Postemergence) | Cocklebur plant response rating ([9]; Rate 62 g/ha) | Plant response rating, Cocklebur ([9]; Rate 125 g/ha, Postemergence) | Cocklebur plant response rating ([9]; Rate 125 g/ha) | Plant response rating, Cocklebur ([9]; Rate 250 g/ha, Postemergence) | Plant response rating, Cocklebur [9, 20] | Wild oats plant response rating (wild oat (Avena fatua); Rate 62 g/ha, Postemergence) | Wild oats plant response rating (wild oat (Avena fatua); Rate 62 g/ha, Preemergence) | Wild oats plant response rating (wild oat (Avena fatua); Rate 125 g/ha, Postemergence) | Plant response rating, Wild oats (wild oat (Avena fatua); Rate 125 g/ha, Preemergence) | Plant response rating, Wild oats (wild oat (Avena fatua); Rate 250 g/ha, Postemergence) | Plant response rating, Wild oats (wild oat (Avena fatua); [20]) | Plant response rating, Giant foxtail ([10]; Rate 62 g/ha, Postemergence) | Giant foxtail plant response rating ([10]; Rate 62 g/ha, Preemergence) | Giant foxtail plant response rating ([10]; Rate 125 g/ha, Postemergence) | Giant foxtail plant response rating ([10]; Rate 125 g/ha, Preemergence) | Plant response rating, Giant foxtail ([10]; Rate 250 g/ha, Postemergence) | Plant response rating, Giant foxtail [10, 20] | Plant response rating, Blackgrass ([11]; Rate 62 g/ha, Postemergence) | Blackgrass plant response rating ([11]; Rate 62 g/ha) | Plant response rating, Blackgrass ([11]; Rate 125 g/ha, Postemergence) | Blackgrass plant response rating ([11]; Rate 125 g/ha) | Plant response rating, Blackgrass ([11]; Rate 250 g/ha, Postemergence) | Plant response rating, Blackgrass [11, 20] | Wheat plant response rating ([12]; Rate 62 g/ha, Postemergence) | Wheat plant response rating ([12]; Rate 62 g/ha, Preemergence) | Wheat plant response rating ([12]; Rate 125 g/ha, Postemergence) | Plant response rating, Wheat ([12]; Rate 125 g/ha, Preemergence) | Plant response rating, Wheat ([12]; Rate 250 g/ha, Postemergence) | Plant response rating, Wheat [12, 20] | Plant response rating, Redroot pigweed ([13]; Rate 62 g/ha, Postemergence) | Redroot pigweed plant response rating ([13]; Rate 62 g/ha, Preemergence) | Redroot pigweed plant response rating ([13]; Rate 125 g/ha, Postemergence) | Redroot pigweed plant response rating ([13]; Rate 125 g/ha, Preemergence) | Plant response rating, Redroot pigweed ([13]; Rate 250 g/ha, Postemergence) | Plant response rating, Redroot pigweed [13, 20] | Plant response rating, Morningglory ([14]; Rate 62 g/ha, Postemergence) | Morningglory plant response rating ([14]; Rate 62 g/ha, Preemergence) | Morningglory plant response rating ([14]; Rate 125 g/ha, Postemergence) | Morningglory plant response rating ([14]; Rate 125 g/ha, Preemergence) | Plant response rating, Morningglory ([14]; Rate 250 g/ha, Postemergence) | Plant response rating, Morningglory [14, 20] | Plant response rating, B. signalgrass ([15]; Rate 62 g/ha, Postemergence) | B. signalgrass plant response rating ([15]; Rate 62 g/ha) | Plant response rating, B. signalgrass ([15]; Rate 125 g/ha, Postemergence) | B. signalgrass plant response rating ([15]; Rate 125 g/ha) | Plant response rating, B. signalgrass ([15]; Rate 250 g/ha, Postemergence) | Plant response rating, B. signalgrass ([15]; Rate 250 g/ha, Postemergence as printed in head r139 (second section for compounds 26-50))
